Assay results: US20180015100A1, “COMBINATION PRODUCTS FOR THE TREATMENT OF BACTERIAL INFECTIONS AND METHODS OF PRODUCING OR DOSING OF SAME” (priority 2016, published 2018)
In brackets after ≈: the same amount, converted by molar mass. Where two headings read alike, the source gives them in different places.

Tests used:
[1] = system: beta-lactamase producing K. pneumoniae; assay: In vitro chemostat model, clavulanate exposures with fixed ceftibuten exposure; type: cell-based
[2] = system: Enterobacter cloacae isolates; assay: MIC of cephalosporins alone or with clavulanate/tazobactam; type: cell-based; details: clavulanate 2:1, tazobactam 4 μg/mL
E. coli (ATCC 25922) = assay: One-compartment in vitro chemostat infection model, ceftibuten alone; type: cell-based
Description: Becton, Dickinson and Company, Sparks, Md.) and placed in a water bath at 35° C. Magnetic stirrers were used for consistent mixing of the contents during the experiment. […] For each drug exposure/bacteria combination, the experiment was conducted over 24 hours and consisted of a drug free control and two experimental (i.e., drug containing) replicate models. Data from the two replicate models were treated as independent exposures given there is some expected variability in obtained concentrations due to small inconsistencies in volume flows between the chemostat models. A peristaltic pump (Masterflex L/S model 7524-40; Cole-Parmer, Vernon Hills, Ill.) was set to infuse CAMHB into the models at a desired elimination rate for the drug. Broth samples were collected from the model throughout the experiment to determine free drug concentrations and bacterial density. Antibiotic carryover was minimized by serial dilution of samples. Bacterial density was counted after 18-24 hours incubation at 37° C. […] Time-kill curves were constructed by plotting the log10 CFU/mL against time. […] The control models served to define 0% fT>MIC results. […] Drug concentrations were assessed at the peak and trough of each administered dose to achieve the desired exposure and at least one other midpoint concentration for each interval. […] The change in log10 CFU/ml at 24 hours was the primary endpoint for exposure response relationship. […] Mountain View, Calif.).

[3] = system: ESBL-producing Enterobacteriaceae isolates (panel of nineteen); assay: MIC of cephalosporins alone or with clavulanate/tazobactam, whole panel; type: cell-based; details: cephalosporin alone
clinical = details: human, in vivo, 400 mg
Description: The twice daily divided dose of study drug was administered approximately 12 hours apart. All subjects randomized to placebo received placebo oral capsules that were identical to study drug capsules and given according to the same dosing schedule and same quantity of capsules as subjects randomized to receive ceftibuten and clavulanate concurrently. All SDs, as well as the first daily dose of the MD period on […] were given while the subject was fasted. […] In addition, blood samples for assessment of trough (pre-dose) concentrations were collected on day 7, day 8, day 9, and alternate days thereafter through study day 17. […] Peak concentration (Cmax), time at which Cmax was observed (Tmax), area under the concentration-time curve to infinity (AUCinf), percent coefficient of variation (% CV), elimination half-life (T1/2), apparent total clearance of the drug from plasma after oral administration (CL/F), and apparent volume of distribution during terminal phase after non-intravenous administration (Vz/F) were determined. […] Similar to above, six subjects were randomized to receive active drug and two were randomized to receive placebo. […] Safety, tolerability and PK were assessed as described above.

[4] = system: Klebsiella pneumoniae isolates; assay: MIC of cephalosporins alone or with clavulanate/tazobactam; type: cell-based; details: clavulanate 2:1, tazobactam 4 μg/mL
CTX-M-15 = CTX-M-15 (Escherichia coli, UniProt Q9EXV5); assay: Competition assay with nitrocefin (IC50); type: biochemical
[5] = In vivo drug-drug interaction, plasma pharmacokinetics after oral bolus; details: rat, oral 34.5 mg/kg ceftibuten ± 10.8 mg/kg clavulanate
[6] = system: beta-lactamase producing E. coli (CTX-M-55; CTX-M-15, TEM-OSBL); assay: microbe, parasite or virus in culture; type: cell-based
[7] = system: E. coli clinical isolate expressing the ESBL CTX-M-15; type: in vivo, mouse; details: 0.5-4 mg/kg q4 hr s.c. for 3 days
[8] = system: ESBL Escherichia coli isolates; assay: MIC against isolates analyzed in time-kill experiments; type: cell-based
[9] = system: Yersinia pestis Colorado92; assay: microbe, parasite or virus in culture; type: cell-based
[10] = system: Burkholderia mallei China7; assay: microbe, parasite or virus in culture; type: cell-based
[11] = system: Klebsiella oxytoca isolates; assay: MIC of cephalosporins alone or with clavulanate/tazobactam; type: cell-based; details: clavulanate 2:1, tazobactam 4 μg/mL
[12] = in vivo, cited from earlier work
[13] = system: Burkholderia pseudomallei 1026b; assay: microbe, parasite or virus in culture; type: cell-based
AECO001 = assay: MIC of cephalosporins (Table 16); type: cell-based
[14] = system: Escherichia coli isolates; assay: MIC of cephalosporins alone or with clavulanate/tazobactam; type: cell-based; details: clavulanate 2:1, tazobactam 4 μg/mL

Sequence of CTX-M-15 (Q9EXV5 entry or part of it): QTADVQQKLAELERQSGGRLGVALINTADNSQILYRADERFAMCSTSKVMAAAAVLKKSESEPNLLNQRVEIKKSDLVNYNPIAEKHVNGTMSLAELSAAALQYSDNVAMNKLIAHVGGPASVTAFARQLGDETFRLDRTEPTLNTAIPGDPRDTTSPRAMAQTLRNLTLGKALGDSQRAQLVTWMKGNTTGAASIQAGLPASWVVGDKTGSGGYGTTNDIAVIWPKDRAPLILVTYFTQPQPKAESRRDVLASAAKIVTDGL

Nc1nc(/C(=C/CC(=O)O)C(=O)N[C@@H]2C(=O)N3C(C(=O)O)=CCS[C@H]23)cs1 [Ceftibuten, ceftibuten]
MIC ([1]; K. pneumoniae CTX-M-14, SHV-12): 16 µg/mL | MIC ([1]; K. pneumoniae CTX-M-15, SHV-12): > 64 µg/mL | MIC ([2]; AECL1065 (CTX-M-15)): > 64 µg/mL | MIC ([2]; AECL1067 (CTX-M-3)): 32 µg/mL | fT > MIC for 1-log CPU reduction (E. coli (ATCC 25922); 24 hours, Emax model): 58.5% | fT > MIC for 2-log CPU reduction (E. coli (ATCC 25922); 24 hours, Emax model): 66.0% | fT > MIC for Stasis (E. coli (ATCC 25922); 24 hours, Emax model): 53.7% | MIC (E. coli (ATCC 25922); Escherichia coli, ATCC25922): 0.25 µg/mL | ESBL-producing isolates with MIC<8 μg/mL ([3]; 19 isolates): 10 of 19 | MICs relative to CLSI/EUCAST MIC breakpoints for the approved dosing regimens ([3]; ESBL-producing Enterobacteriaceae): above the CLSI/EUCAST | geometric mean % CV of exposure (Cmax and AUCinf) (clinical): 11-16% | AUC(0-inf) (clinical; po, AUCinf): 93000 ng·h/mL | Cmax (clinical; po, Cmax): 17900 ng/mL | half-life (clinical; po, T½): 3.11 h | Vd/F (clinical; po, Vz/F): 19.3 L | MIC ([4]; AKPN1159 (SHV-12)): 4 µg/mL | MIC ([4]; AKPN1161 (SHV-7)): 2 µg/mL | MIC ([4]; AKPN1162 (CTX-M-15, SHV-12)): 32 µg/mL | MIC ([4]; AKPN1166 (CTX-M-14, SHV-12)): 4 µg/mL | MIC ([4]; AKPN1167 (SHV-2)): 2 µg/mL | IC50 (CTX-M-15): > 1000 µM | IC50 (CTX-M-15; read-out: IC50 (95% CI), competition with nitrocefin): > 1000 µM | effect of the combination on plasma concentration of ceftibuten vs ceftibuten alone [5]: did not markedly alter | MIC ([6]; E. coli CTX-M-15, TEM-OSBL): > 64 µg/mL | MIC ([6]; E. coli CTX-M-55, listed as CTB): >64 µg/mL | MIC ([6]; Escherichia coli, E. coli CTX-M-55, read-out: MIC): > 64 µg/mL | bacterial titers, bladder [7]: 4.06-4.58 log10 CFU | bacterial titers, kidneys [7]: 4.26-5.83 log10 CFU | bacterial titers, urine [7]: 3.62-4.81 log10 CFU | reduction of bacterial titers relative to untreated control, bladder [7]: 2.8-3.35 log10 CFU | reduction of bacterial titers relative to untreated control, kidneys [7]: 0.6-2.17 log10 CFU | reduction of bacterial titers relative to untreated control, urine [7]: 2.46-3.65 log10 CFU | MIC ([8]; AECO1156 (CTXM-15, TEM-OSBL)): 16 µg/mL (≈ 39 µM) | MIC ([8]; AECO1157 (CTXM-15, TEM-OSBL)): 8 µg/mL (≈ 19.5 µM) | MIC ([8]; AECO1162 (CTX-M-14)): 8 µg/mL (≈ 19.5 µM) | MIC ([8]; AECO1166 (SHV-12)): 2 µg/mL (≈ 4.87 µM) | MIC [9]: 0.03 µg/mL (≈ 0.0731 µM) | MIC [10]: 1 to 2 µg/mL (≈ 2.44 to 4.87 µM) | MIC ([11]; AKOX1005 (SHV-2, TEM-1, DHA-1)): 2 µg/mL | MIC ([11]; AKOX1009 (CTX-M-15)): 4 µg/mL | Mean Cmax ([12]; 400 mg): 15000 ng/mL | Mean fCmax ([12]; 400 mg): 5.3 µg/mL | bioavailability ([12]; po): 40-90% | time free drug concentrations >2 μg/mL following drug administration ([12]; po): at least 6 hours | Elimination half-life [12]: ~2.4 h | Mean unbound plasma concentration following one elimination half-life [12]: 2600 ng/mL | MIC [13]: 8 µg/mL (≈ 19.5 µM) | MIC (AECO001): 0.5 µg/mL | MIC ([14]; AECO001 (no ESBL)): 0.5 µg/mL | MIC ([14]; AECO1078 (CTX-M-15)): 32 µg/mL | MIC ([14]; AECO1147 (CTX-M-15)): 4 µg/mL | MIC ([14]; AECO1157 (CTX-M-15, TEM-OSBL)): 8 µg/mL | MIC ([14]; AECO1159 (CTX-M-15)): 16 µg/mL | MIC ([14]; AECO1169 (CTX-M-1, TEM-OSBL)): 1 µg/mL | MIC ([14]; AECO1172 (CTX-M-14)): 2 µg/mL
